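Assay format: 96-well plates, 48-hour exposure. Abbreviation: GI50, concentration required for 50% inhibition of growth. TGI: concentration producing complete growth inhibition.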
Columns and labels:
Assay in all cases: DTP human tumour cell line panel, 48 h
786-0 renal = system: 786-0 renal
A498 renal = system: A498 renal
A549 NSCLC = system: A549 NSCLC
ACHN renal = system: ACHN renal
BT-549 breast = system: BT-549 breast
CAKI-1 renal = system: CAKI-1 renal
CCRF-CEM leukemia = system: CCRF-CEM leukemia
COLO 205 colon = system: COLO 205 colon
DU-145 prostate = system: DU-145 prostate
EKVX NSCLC = system: EKVX NSCLC
HCC-2998 colon = system: HCC-2998 colon
HCT-116 colon = system: HCT-116 colon
HCT-15 colon = system: HCT-15 colon
HL-60(TB) leukemia = system: HL-60(TB) leukemia
HOP-62 NSCLC = system: HOP-62 NSCLC
HOP-92 NSCLC = system: HOP-92 NSCLC
HS 578T breast = system: HS 578T breast
HT29 colon = system: HT29 colon
IGROV1 ovarian = system: IGROV1 ovarian
K-562 leukemia = system: K-562 leukemia
KM12 colon = system: KM12 colon
LOX IMVI melanoma = system: LOX IMVI melanoma
M14 melanoma = system: M14 melanoma
MALME-3M melanoma = system: MALME-3M melanoma
MCF7 breast = system: MCF7 breast
MDA-MB-231 breast = system: MDA-MB-231 breast
MDA-MB-435 = system: MDA-MB-435
MOLT-4 leukemia = system: MOLT-4 leukemia
NCI-H226 lung = system: NCI-H226 lung
NCI-H23 lung = system: NCI-H23 lung
NCI-H460 lung = system: NCI-H460 lung
NCI-H522 lung = system: NCI-H522 lung
NCI/ADR-RES ovarian = system: NCI/ADR-RES ovarian
OVCAR-3 ovarian = system: OVCAR-3 ovarian
OVCAR-4 ovarian = system: OVCAR-4 ovarian
OVCAR-5 ovarian = system: OVCAR-5 ovarian
OVCAR-8 ovarian = system: OVCAR-8 ovarian
PC-3 prostate = system: PC-3 prostate
RPMI-8226 leukemia = system: RPMI-8226 leukemia
SF-268 CNS = system: SF-268 CNS
SF-295 CNS = system: SF-295 CNS
SF-539 CNS = system: SF-539 CNS
SK-MEL-2 melanoma = system: SK-MEL-2 melanoma
SK-MEL-28 melanoma = system: SK-MEL-28 melanoma
SK-MEL-5 melanoma = system: SK-MEL-5 melanoma
SK-OV-3 ovarian = system: SK-OV-3 ovarian
SN12C renal = system: SN12C renal
SNB-19 CNS = system: SNB-19 CNS
SNB-75 CNS = system: SNB-75 CNS
SR leukemia = system: SR leukemia
SW-620 colon = system: SW-620 colon
T-47D breast = system: T-47D breast
TK-10 renal = system: TK-10 renal
U251 CNS = system: U251 CNS
UACC-257 melanoma = system: UACC-257 melanoma
UACC-62 melanoma = system: UACC-62 melanoma
UO-31 renal = system: UO-31 renal

In the case of `CC(Nc1ncnc2ccc(-c3cnc(N)nc3)cc12)c1ccccc1` (centres undefined), the GI50 (786-0 renal) is reported as 5.33 µM, the TGI (786-0 renal) is reported as over 100 µM and the GI50 (A498 renal) is reported as 1.42 µM. For the same molecule, the TGI (A498 renal) was 6.52 µM, the GI50 (A549 NSCLC) was 6.48 µM and the TGI (A549 NSCLC) was over 100 µM. The GI50 (ACHN renal) was 3.02 µM, the TGI (ACHN renal) was 18.6 µM and the GI50 (BT-549 breast) was 2.22 µM. For the same molecule, the TGI (BT-549 breast) was 12 µM, the GI50 (CAKI-1 renal) was 3.17 µM and the TGI (CAKI-1 renal) was 17.8 µM. For the same molecule, the GI50 (CCRF-CEM leukemia) was 7.7 µM, the TGI (CCRF-CEM leukemia) was over 100 µM and the GI50 (COLO 205 colon) was 13.5 µM. It also gave a TGI (COLO 205 colon) of 47.5 µM, a GI50 (DU-145 prostate) of 4.34 µM and a TGI (DU-145 prostate) of over 100 µM. The GI50 (EKVX NSCLC) was 1.97 µM, the TGI (EKVX NSCLC) was 10.4 µM and the GI50 (HCC-2998 colon) was 8.05 µM. For the same molecule, the TGI (HCC-2998 colon) was 50.8 µM, the GI50 (HCT-116 colon) was 8.01 µM and the TGI (HCT-116 colon) was 24.3 µM. It also gave a GI50 (HCT-15 colon) of 4.12 µM, a TGI (HCT-15 colon) of 54.6 µM and a GI50 (HL-60(TB) leukemia) of 14.8 µM. It also gave a TGI (HL-60(TB) leukemia) of 43.7 µM, a GI50 (HOP-62 NSCLC) of 5.76 µM and a TGI (HOP-62 NSCLC) of over 100 µM. The GI50 (HOP-92 NSCLC) was 1.04 µM, the TGI (HOP-92 NSCLC) was 5.62 µM and the GI50 (HS 578T breast) was 2.15 µM. It also gave a TGI (HS 578T breast) of 8.64 µM, a GI50 (HT29 colon) of 8.41 µM and a TGI (HT29 colon) of 46.4 µM. For the same molecule, the GI50 (IGROV1 ovarian) was 1.95 µM, the TGI (IGROV1 ovarian) was 8.26 µM and the GI50 (K-562 leukemia) was 6.32 µM. It also gave a TGI (K-562 leukemia) of over 100 µM, a GI50 (KM12 colon) of 7.91 µM and a TGI (KM12 colon) of 36.3 µM. The GI50 (LOX IMVI melanoma) was 4.26 µM, the TGI (LOX IMVI melanoma) was 16.9 µM and the GI50 (M14 melanoma) was 6.76 µM. The TGI (M14 melanoma) was 31.6 µM, the GI50 (MALME-3M melanoma) was 3.03 µM and the TGI (MALME-3M melanoma) was 19.5 µM. For the same molecule, the GI50 (MCF7 breast) was 4.1 µM, the TGI (MCF7 breast) was 24.4 µM and the GI50 (MDA-MB-231 breast) was 3.38 µM. It also gave a TGI (MDA-MB-231 breast) of 15.5 µM, a GI50 (MDA-MB-435) of 11.1 µM and a TGI (MDA-MB-435) of 42 µM. The GI50 (MOLT-4 leukemia) was 5.37 µM, the TGI (MOLT-4 leukemia) was over 100 µM and the GI50 (NCI-H226 lung) was 3.57 µM. It also gave a TGI (NCI-H226 lung) of 22 µM, a GI50 (NCI-H23 lung) of 9.2 µM and a TGI (NCI-H23 lung) of 37.4 µM. It also gave a GI50 (NCI-H460 lung) of 4.79 µM, a TGI (NCI-H460 lung) of 31.1 µM and a GI50 (NCI-H522 lung) of 4.9 µM. For the same molecule, the TGI (NCI-H522 lung) was over 100 µM, the GI50 (NCI/ADR-RES ovarian) was 9.42 µM and the TGI (NCI/ADR-RES ovarian) was 47.3 µM. It also gave a GI50 (OVCAR-3 ovarian) of 4.59 µM, a TGI (OVCAR-3 ovarian) of 20.1 µM and a GI50 (OVCAR-4 ovarian) of 4.55 µM. It also gave a TGI (OVCAR-4 ovarian) of 43.4 µM, a GI50 (OVCAR-5 ovarian) of 3.4 µM and a TGI (OVCAR-5 ovarian) of 37.5 µM. The GI50 (OVCAR-8 ovarian) was 10.8 µM, the TGI (OVCAR-8 ovarian) was 30.2 µM and the GI50 (PC-3 prostate) was 4.05 µM. For the same molecule, the TGI (PC-3 prostate) was over 100 µM, the GI50 (RPMI-8226 leukemia) was 4.66 µM and the TGI (RPMI-8226 leukemia) was 42.9 µM. It also gave a GI50 (SF-268 CNS) of 5.26 µM, a TGI (SF-268 CNS) of 34.5 µM and a GI50 (SF-295 CNS) of 4.5 µM. The TGI (SF-295 CNS) was 27 µM, the GI50 (SF-539 CNS) was 6.2 µM and the TGI (SF-539 CNS) was 19.2 µM. The GI50 (SK-MEL-2 melanoma) was 20.4 µM, the TGI (SK-MEL-2 melanoma) was over 100 µM and the GI50 (SK-MEL-28 melanoma) was 9.05 µM. For the same molecule, the TGI (SK-MEL-28 melanoma) was 53.1 µM, the GI50 (SK-MEL-5 melanoma) was 7.28 µM and the TGI (SK-MEL-5 melanoma) was 20.8 µM. For the same molecule, the GI50 (SK-OV-3 ovarian) was 6.67 µM, the TGI (SK-OV-3 ovarian) was over 100 µM and the GI50 (SN12C renal) was 2.9 µM. For the same molecule, the TGI (SN12C renal) was 15.7 µM, the GI50 (SNB-19 CNS) was 9.29 µM and the TGI (SNB-19 CNS) was 44.1 µM. The GI50 (SNB-75 CNS) was 2.76 µM, the TGI (SNB-75 CNS) was 23.1 µM and the GI50 (SR leukemia) was 4.08 µM. The TGI (SR leukemia) was over 100 µM, the GI50 (SW-620 colon) was 15.2 µM and the TGI (SW-620 colon) was 51.7 µM. For the same molecule, the GI50 (T-47D breast) was 1.91 µM, the TGI (T-47D breast) was 46.4 µM and the GI50 (TK-10 renal) was 1.59 µM. For the same molecule, the TGI (TK-10 renal) was 14.2 µM, the GI50 (U251 CNS) was 6.92 µM and the TGI (U251 CNS) was 60 µM. The GI50 (UACC-257 melanoma) was 23.9 µM, the TGI (UACC-257 melanoma) was over 100 µM and the GI50 (UACC-62 melanoma) was 4.48 µM. The TGI (UACC-62 melanoma) was 18.2 µM, the GI50 (UO-31 renal) was 1.29 µM and the TGI (UO-31 renal) was 16.4 µM.
